Results reported in US8481459B2, “Chemical inhibitors of ethylene biosynthesis” (Academia Sinica, priority 2010, dated 2013).
“Also recorded” adds a separate entry of the source.

Tested on: etiolated eto1-4 seedlings
Assay: Triple response phenotype / hypocotyl length of etiolated eto1-4 seedlings
Type: in vivo, Arabidopsis thaliana
Conditions: for ranking in both hypocotyl length and ethylene level assays / suppression of the eto1-4 (triple response) phenotype: 10 μM; for ranking in both hypocotyl length and ethylene level assays: etiolated eto1-4, FIG. 3; for suppression of the eto1-4 (triple response) phenotype: germinated in the dark for 3 days; for effectiveness in phenotypical assay: etiolated eto1-4 seedlings; for concentration at which hypocotyl elongation becomes visible / concentration reaching maximal / nearly saturated effect on hypocotyl: eto1-4, 3 days in the dark, dose series
Procedure: All mutants and transgenic plants were derived from the wild-type Arabidopsis thaliana Columbia ecotype (Col-0) and cultivated under a long-day condition (16-h light/8-h dark at 22° C.) under exemplary e light (100-150 μE m^−2 s^−1). A reporter construct, 5×EBS::LUC (a generous gift from Drs. Hai Li and Anna N. Stepanova, Salk Institute, USA), containing 5 copies of EIN3 binding sequence (EBS) fused with luciferase gene (LUC) was transformed to eto1-4 and subsequently used for screening compounds of a chemical library. Ethylene mutants eto1-4, eto2-1, ctr1-1 and the EIN3 overexpression line (35S::EIN3) were described previously (Solano, et al. (1998) Genes Dev 12, 3703-3714). Seeds were sterilized with 30% bleach for 6 min and sown in half-strength Murashige and Skoog (0.5×MS) medium supplemented with 0.8% agar and stratified in the dark at 4° C. for 3-4 days before germination. For analysis of the triple response phenotype, stratified seeds were grown in the dark at 22° C. for 3 days before scoring the phenotype.
A DIVERSet library (ChemBridge Inc.) containing 10,000 small molecules (in DMSO) was used for chemical screening. Three rounds of chemical screenings were carried out in 0.5×MS agar medium containing individual chemicals in each well of 96- and 24-well micro-titer plates. The initial screening was performed by sowing 10 to 15 seeds in the wells of micro-titer plates containing small molecules at 50 μM to score the long-hypocotyl phenotype. For the second and third screenings, we used 25 μM of small molecules selected from the first round of screening to score and confirm the phenotype. The seedling phenotype was scored by use of a digital camera attached to a Zeiss stereomicroscope (SteREO V8), and quantitation of hypocotyl length was performed by use of NIH Image J software. AVG and silver thiosulfate (STS, by mixing silver nitrate and sodium thiosulfate at a 1:4 molar ratio immediately before use) were obtained from Sigma and used as controls to suppress ethylene biosynthesis and perception, respectively. Agar medium was supplemented with 1-aminocyclopropane-1-carboxylic acid (10 μM, Merck) to induce the triple response in etiolated seedlings.
Shortened hypocotyls in etiolated seedlings is one of the triple response phenotypes (Guzman, et al. (1990) Plant Cell 2, 513-523; Wang, et al. (2004) Nature 428, 945-950). Two chemical compounds negating ethylene response, AVG and STS, were included as a control for comparison.

Compound | ranking in both hypocotyl length and ethylene level assays | suppression of the eto1-4 (triple response) phenotype | effectiveness in phenotypical assay | concentration at which hypocotyl elongation becomes visible [µM] | concentration reaching maximal / nearly saturated effect on hypocotyl [µM]
CC1(C)CC(=O)c2cnc(NC3CCCC3)nc2C1 [Compound 9393] | most effective | Suppression; also recorded: effectiveness comparable to that of silver nitrate | highly effective |  | 
Cc1ccc(C2CC(=O)c3cnc(NC4CCCC4)nc3C2)cc1 (stereo not shown) [Compound 9370] | most effective | Suppression; also recorded: effectiveness comparable to that of silver nitrate | highly effective | 0.1 | 5
COc1ccc(C2CC(=O)c3cnc(Nc4ccccc4)nc3C2)cc1 (stereo not shown) [Compound 7303] | most effective | Suppression; also recorded: effect comparable to that of compounds 9393 and 9370 | highly effective; also recorded: the most effective | 0.1 | 5
